Reference: US20260158009A1 (GENZYME CORPORATION, priority 2023, published 2026)

Legend:
[1] = target: T1, hRIPK1 (aa 1-375) fusion protein (Homo sapiens, UniProt Q13546); experiment: ADP-Glo kinase assay: catalytic activity of RIPK1 (autophosphorylation, conversion of ATP to ADP); format: biochemical
T1 construct: hRIPK1 (aa 1-375) fusion protein
T1 sequence (Q13546 1-375): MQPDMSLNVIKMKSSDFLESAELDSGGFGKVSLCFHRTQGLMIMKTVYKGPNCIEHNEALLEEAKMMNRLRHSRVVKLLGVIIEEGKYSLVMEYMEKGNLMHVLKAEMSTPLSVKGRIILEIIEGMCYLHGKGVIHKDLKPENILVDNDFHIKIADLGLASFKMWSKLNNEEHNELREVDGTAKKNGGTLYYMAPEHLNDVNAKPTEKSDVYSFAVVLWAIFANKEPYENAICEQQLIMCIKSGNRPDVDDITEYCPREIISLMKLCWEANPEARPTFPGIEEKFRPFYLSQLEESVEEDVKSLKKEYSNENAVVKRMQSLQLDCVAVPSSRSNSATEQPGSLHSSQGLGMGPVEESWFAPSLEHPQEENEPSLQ
Outline: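 The readout was ADP-Glo luminescence after a 240 min rt autophosphorylation reaction with 50 μM ATP, following 30 min preincubation of 3.6 μg/ml hRIPK1 (aa 1-375) fusion with compound at 33300-1.69 nM final in 1% DMSO. Values came from Levenberg-Marquardt nonlinear fits.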

U937 cells = experiment: Cellular assay in U937 cells: activity of RIPK1 inhibitors on TNFα/zVAD.fmk-induced cell death (necroptosis), CellTiter 96 AQueous (MTS) readout; format: cell-based; details: Homo sapiens, U-937
Outline: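 Necroptosis was measured by viable-cell MTS reduction (4 h, absorbance 490 nm) after overnight (18–24 h) 37° C culture. Cell suspensions of U937 cells carried TNFα (100 ng/ml) plus zVAD.fmk (50 μM) before compound was added. A 10-point curve (10 μM–0.26 nM or 1 μM–0.07 nM) was run in duplicate, normalised to the control lacking TNFα/zVAD.fmk.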

SMILES	IC50 [1] [µM]	IC50 (U937 cells) [µM]
Cc1ncc(F)cc1C[C@H]1CC[C@H](C(=O)N2OCC[C@H]2c2cncc(C#N)c2)CC1 [compound 197, trans-5-[(3S)-2-[4-[(5-fluoro-2-methyl-3-pyridyl)methyl]cyclohexanecarbonyl]isoxazolidin-3-yl]pyridine-3-carbonitrile]	0.024	0.004
Cc1ccc([C@@H]2CCON2C(=O)[C@H]2CC[C@H](Cn3ncc4cc(C#N)c(F)cc43)CC2)cn1 [compound 298, 6-fluoro-1-[[trans-4-[(3S)-3-(6-methyl-3-pyridyl)isoxazolidine-2-carbonyl]cyclohexyl]methyl]indazole-5-carbonitrile]	0.02	0.006
Cc1cnc([C@@H]2CCON2C(=O)[C@H]2CC[C@H](Cc3cc(C)c4nc(C)nn4c3)CC2)cn1 [compound 328, trans-[4-[(2,8-dimethyl-[1,2,4]triazolo[1,5-a]pyridin-6-yl)methyl]cyclohexyl]-[(3S)-3-(5-methylpyrazin-2-yl)isoxazolidin-2-yl]methanone; 2,2,2-trifluoroacetic]	0.047	0.082
COc1cc(C[C@H]2CC[C@H](C(=O)N3OCC[C@H]3c3ccc(C)nc3)CC2)cn2nc(C)nc12 [compound 368, trans-[4-(8-Methoxy-2-methyl-[1,2,4]triazolo[1,5-a]pyridin-6-ylmethyl)-cyclohexyl]-[(S)-3-(6-methyl-pyridin-3-yl)-isoxazolidin-2-yl]-methanone]	0.095	0.123
Cc1cc(C[C@H]2CC[C@H](C(=O)N3OCC[C@H]3c3cnccn3)CC2)cn2ncnc12 [compound 250, trans-[4-[(8-methyl-[1,2,4]triazolo[1,5-a]pyridin-6-yl)methyl]cyclohexyl]-[(3S)-3-pyrazin-2-yl-1,2-oxazolidin-2-yl]methanone]	0.016	0.017
Cc1nc([C@@H]2CCON2C(=O)[C@H]2CC[C@H](Cn3ncc4ccc(C#N)cc43)CC2)cs1 [compound 204, trans-1-[[4-[(3S)-3-(2-methylthiazol-4-yl)isoxazolidine-2-carbonyl]cyclohexyl]methyl]indazole-6-carbonitrile]	0.021	0.002
COc1cncc([C@@H]2CCON2C(=O)[C@H]2CC[C@H](Cc3ccc(C)c(C(N)=O)c3)CC2)n1 [compound 166, trans-5-[[4-[(3S)-3-(6-methoxypyrazin-2-yl)isoxazolidine-2-carbonyl]cyclohexyl]methyl]-2-methyl-benzamide]	0.008	0.05

Further lines, with some results ahead:

IC50 [1] [µM]	SMILES	IC50 (U937 cells) [µM]
0.019	Cc1ccc(C[C@H]2CC[C@H](C(=O)N3OCC[C@H]3c3cc(F)cc(C#N)c3)CC2)cc1C#N [compound 109, trans-5-((4-((S)-3-(3-cyano-5-fluorophenyl)isoxazolidine-2-carbonyl)cyclohexyl)methyl)-2-methylbenzonitrile]	0.001
0.038	Cc1cc(C[C@H]2CC[C@H](C(=O)N3OCC[C@H]3c3cc(F)cc(C#N)c3)CC2)nc(C)n1 [compound 312, 3-[(3S)-2-[4-[(2,6-dimethylpyrimidin-4-yl)methyl]cyclohexanecarbonyl]isoxazolidin-3-yl]-5-fluoro-benzonitrile]	0.02
0.007	N#Cc1cc(F)cc([C@@H]2CCON2C(=O)[C@H]2CC[C@H](Cn3ccc4ncc(OCC5CC5)cc43)CC2)c1 [compound 152, trans-3-[(3S)-2-[4-[[6-(cyclopropylmethoxy)pyrrolo[3,2-b]pyridin-1-yl]methyl]cyclohexanecarbonyl]isoxazolidin-3-yl]-5-fluoro-benzonitrile]	0.003
0.019	N#Cc1cc(F)cc([C@@H]2CCON2C(=O)[C@H]2CC[C@H](Cc3ccc(C4(O)COC4)cc3)CC2)c1 [compound 169, trans-3-fluoro-5-[(3S)-2-[4-[[4-(3-hydroxyoxetan-3-yl)phenyl]methyl]cyclohexanecarbonyl]isoxazolidin-3-yl]benzonitrile]	0.044
